Results reported in patent US11267791B2 (F.I.S.—FABBRICA ITALIANA SINTETICI S.P.A., priority 2018, dated 2022).
Structures can show the parent of a compound that is named as a salt. Each block holds one compound with its values, some of them ahead of it.

How the values were obtained:
[1] = Hygroscopicity study by DVS (Dynamic Vapour Sorption); type: physicochemical; conditions: 25° C.; for humidity adsorbed (water uptake) / hygroscopicity (water uptake): at 95% RH
Experimental: Hygroscopicity study was determined by DVS (Dynamic Vapour Sorption) with a Q5000 TA instrument. This is a gravimetric technique that measures how much water is absorbed or desorbed by a sample at different relative humidity (RH). At each RH, the sample mass must be allowed to reach gravimetric equilibrium (or surpassed time limit) before progressing to the next humidity level. Sorption and desorption isotherms were performed at 25° C. over a range of 0-95% RH. The samples gently milled were not previously dried but they were exposed to 0% RH until a stable weight was reached before starting the DVS cycle. This equilibration step allows possible adsorbed humidity to be eliminated.

[2] = cited from earlier work
[3] = Preliminary stability in water at RT, slurry analysed by XRPD; type: physicochemical; conditions: XRPD at 1, 3, 6 and 24 h
Experimental: A preliminary test stability study in water at RT of 4 ETP monoethanolamine salt Forms was performed in order to observed possible crystalline transitions. A sample of each crystalline form was slurried in water at RT and periodically analysed by XRPD (1, 3, 6 and 24 h) in order to detect possible crystalline transformation.

[4] = Relative thermodynamic solubility in water at RT by HPLC; type: physicochemical
Experimental: The relative solubility of the above mentioned 4 ETP monoethanolamine salt Forms was studied in water at RT. The validity of any solubility measurement requires that the crystalline form must remain stable with respect to any phase conversion taking place during the determination of the equilibrium solubility.
This suspension was stirred 24 h at RT in order to reach the equilibrium. Then, a sample was filtered and the resulting filtrate was analysed by HPLC by duplicate. The average peak area of ETP gave a relative value of the thermodynamic solubility of each form that can be compared with each other. The solids recovered after filtration were also analysed by XRPD to check that no crystalline phase transformation occurred during the slurring.
HPLC ETP peak area in each of the different forms analysed was measured in order to establish their relative solubility. The HPLC analyses were performed by duplicate for each ETP monoethanolamine salt.

[5] = Crystalline stability of Form D1 under accelerated ICH guideline conditions, XRPD; type: physicochemical
Excerpt: This sample was periodically analysed by XRPD in order to observe possible crystalline transformation or amorphization. Moreover, a sample of ETP monoethanolamine salt Form D1 stored on a XRPD silicon holder was exposed in a climatic chamber. It is worth noting that these stability conditions are harsher than standard stability conditions due to the high surface of exposition of the solid stored on the XRPD silicon holder. The samples were periodically analysed by XRPD to observe possible crystalline transformation.

[6] = Stability study of Form E, atmospheric and ICH accelerated conditions, XRPD; type: physicochemical; conditions: after 1 day of exposition
Experimental: In the first ETP monoethanolamine salt Form E was exposed to atmospheric conditions for 1 day was unstable, and a new form very similar to Form II (ETP bisethanolamine salt) described in U.S. Pat. No. 8,372,822B2 was recovered according to XRPD analysis. In the second ETP monoethanolamine salt Form E was exposed to ICH guideline accelerated conditions (40° C./75 RH %). Under these conditions, Form E converted partially to a new unknown form.

Compound: Eltrombopag monoethanolamine salt [Form D]
- hygroscopicity in words ([1]; up to 85% RH, listed as ETP monoethanolamine salt Form D): not hygroscopic

Compound: CC1=NN(c2ccc(C)c(C)c2)C(=O)/C1=N\Nc1cccc(-c2cccc(C(=O)O)c2)c1O [Eltrombopag olamine, Eltrombopag bisethanolamine salt]
- thermally stable up to ([2]; at higher temperature endothermic reaction associated with degradation): about 125 °C
- solubility in water [2]: sparingly soluble

Compound: Eltrombopag monoethanolamine salt [Form H]
- humidity adsorbed (water uptake) [1]: up to 1.4 % w/w
- hygroscopicity (water uptake) [1]: 1.4 w/w
- crystalline stability slurried in water [3]: remained stable

Compound: Eltrombopag monoethanolamine salt [Form E]
- result of stability study, crystalline form by XRPD ([6]; 40° C./75 RH %, ICH accelerated): partial conversion to a new form with a main peak at 8.6° (2θ)
- result of stability study, crystalline form by XRPD ([6]; atmospheric conditions): Form II+one peak at 8.6° (2θ)

Results, then the compound that gave them:

- hygroscopicity (water uptake) ([1]; listed as ETP monoethanolamine salt Form H2): 0.6 w/w
Compound: Eltrombopag monoethanolamine salt [Form H2]

- humidity adsorbed (water uptake) [1]: less than 0.2 % w/w
- crystalline stability slurried in water [3]: remained stable
- Intensity test average ([4]; average of solubility tests #1 and #2, HPLC ETP peak area): 2911
- Solubility test #1 (area counts) ([4]; saturated water solution, 24 h at RT, HPLC ETP peak area): 2722 area counts
- Solubility test #2 (area counts) ([4]; saturated water solution, 24 h at RT, HPLC ETP peak area, repeat): 3100 area counts
- crystalline stability in words ([5]; 2 months study period): remained stable
- period the crystalline form remains stable ([5]; T=40° C./75±5% RH (chamber 45±2° C.-75±5% RH)): at least 2 months
Compound: CC1=NN(c2ccc(C)c(C)c2)C(=O)/C1=N\Nc1cccc(-c2cccc(C(=O)O)c2)c1O [Form D1, Eltrombopag monoethanolamine salt]
